Experimental findings from patent US20250011299A1, “PYRIDAZINYL AMINO DERIVATIVES AS ALK5 INHIBITORS” (CHIESI FARMACEUTICI S.P.A., priority 2021, published 2025) are described below.

Each structure is given as a SMILES string.

The assay has as its target T1, human ALK5 (Homo sapiens, UniProt P36897).
T1 construct: human ALK5 (recombinant TGF β1 N-term GST-tagged, 80-end); GST (N); purchased
T1 sequence (P36897 80-503 limits assumed): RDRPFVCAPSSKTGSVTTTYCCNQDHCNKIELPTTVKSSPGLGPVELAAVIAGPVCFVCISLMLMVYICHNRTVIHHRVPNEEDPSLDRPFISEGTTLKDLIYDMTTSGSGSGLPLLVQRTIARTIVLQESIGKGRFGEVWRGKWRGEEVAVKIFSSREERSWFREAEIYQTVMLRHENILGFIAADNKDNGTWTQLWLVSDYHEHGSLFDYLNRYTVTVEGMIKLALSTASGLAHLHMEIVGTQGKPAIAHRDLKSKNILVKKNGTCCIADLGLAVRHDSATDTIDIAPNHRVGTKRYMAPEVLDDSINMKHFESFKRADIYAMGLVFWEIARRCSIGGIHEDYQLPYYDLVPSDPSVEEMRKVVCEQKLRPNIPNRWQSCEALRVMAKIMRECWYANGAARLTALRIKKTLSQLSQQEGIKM
As to the kind of experiment: ADP-GLO Kinases assay of ALK5 enzymatic activity. The class given is biochemical. The note with it: purified recombinant human ALK5, TGFβ1 peptide substrate, pIC50 converted to pKi by Cheng-Prusoff, high ATP protocol (15 μM) for very potent compounds, 25° C. A digest of the protocol:
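Purified ALK5 preincubated 15 min with compound, then reacted with substrate and ATP; ADP formed read by ADP-Glo luminescence after 120 min or 60 min reaction, all steps at 25° C. 11-point concentration-response; pIC50 converted to pKi via Cheng-Prusoff.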
(In general: ADP-Glo first removes unused ATP, then detects ADP through luciferase.)

Usually Ki stands for the dissociation constant of the complex between target and ligand, obtained from inhibition or displacement.

For `CN1C[C@@H]2C[C@H]1CN2[C@H]1C[C@H](C(=O)Nc2cc(Nc3cc(-c4cc(Cl)ccc4F)nnc3SCCO)ccn2)C1` [Example 88, Trans N-(4-{[6-(5-chloro-2-fluorophenyl)-3-[(2-hydroxyethyl)sulfanyl]pyridazin-4-yl]amino}pyridin-2-yl)-3-[(1S,4S)-5-methyl-2,5-diazabicyclo[2.2.1]heptan-2-yl]cyclobutane-1-carboxamide], the Ki is ≤ 0.1 nM. In the case of `CN1CCN([C@@H]2CC[C@H](C(=O)Nc3cc(Nc4cc(-c5cc(Cl)ccc5F)nnc4SCCO)ccn3)C2)CC1` (single isomer, unassigned; enantiomer 1) [Example 188, Cis Enantiomer 1 N-(4-{[6-(5-chloro-2-fluorophenyl)-3-[(2-hydroxyethyl)sulfanyl]pyridazin-4-yl]amino}pyridin-2-yl)-3-(4-methylpiperazin-1-yl)cyclopentane-1-carboxamide], the Ki is ≤ 0.1 nM. Consider `O=C(CN1CCNCC1)Nc1cc(Nc2cc(-c3cc(Cl)ccc3F)nnc2SCCO)ccn1` [Example 60, N-(4-{[6-(5-chloro-2-fluorophenyl)-3-[(2-hydroxyethyl)sulfanyl]pyridazin-4-yl]amino}pyridin-2-yl)-2-(piperazin-1-yl)acetamide], for which the Ki is ≤ 0.1 nM. Consider `CN1CCN(CCOc2nnc(-c3cc(Cl)ccc3F)cc2Nc2ccnc(N)c2)CC1` [Example 70, N4-[6-(5-chloro-2-fluorophenyl)-3-[2-(4-methylpiperazin-1-yl)ethoxy]pyridazin-4-yl]pyridine-2,4-diamine], for which the Ki is 0.398 to 3.16 nM.

For `CS(=O)(=O)CCCOc1nnc(-c2cc(Cl)ccc2F)cc1Nc1ccnc(N)c1` [Example 56, N4-[6-(5-chloro-2-fluorophenyl)-3-(3-methanesulfonylpropoxy)pyridazin-4-yl]pyridine-2,4-diamine], the inhibitory constant (Ki) was 0.398 to 3.16 nM. In the case of `CN(C)CCOC(=O)c1cccc(CSc2nnc(-c3cc(Cl)ccc3F)cc2Nc2ccnc3[nH]ccc23)c1` [Example 207, 2-(dimethylamino)ethyl 3-({[6-(5-chloro-2-fluorophenyl)-4-({1H-pyrrolo[2,3-b]pyridin-4-yl}amino)pyridazin-3-yl]sulfanyl}methyl)benzoate], the Ki was 0.126 to 0.316 nM. Regarding `C[C@@H]1CN(CC23CC(C(=O)Nc4cc(Nc5cc(-c6cc(Cl)ccc6F)nnc5SCCO)ccn4)(C2)C3)C[C@H](C)N1` [Example 191, N-(4-{[6-(5-chloro-2-fluorophenyl)-3-[(2-hydroxyethyl)sulfanyl]pyridazin-4-yl]amino}pyridin-2-yl)-3-[(3,5-dimethylpiperazin-1-yl)methyl]bicyclo[1.1.1]pentane-1-carboxamide], the Ki is 0.126 to 0.316 nM. With `CN1CCN(CCC(=O)Nc2cc(Nc3cc(-c4cc(Cl)ccc4F)nnc3OCc3ccc4c(c3)OC(C)(C)O4)ccn2)CC1` [Example 116, N-(4-{[6-(5-chloro-2-fluorophenyl)-3-[(2,2-dimethyl-2H-1,3-benzodioxol-5-yl)methoxy]pyridazin-4-yl]amino}pyridin-2-yl)-3-(4-methylpiperazin-1-yl)propanamide], the Ki is 0.126 to 0.316 nM. Regarding `O=C(Nc1cc(Nc2cc(-c3cc(Cl)ccc3F)nnc2SCCO)ccn1)C12CC(CN3CCN(C4CC4)CC3)(C1)C2` [Example 183, N-(4-{[6-(5-chloro-2-fluorophenyl)-3-[(2-hydroxyethyl)sulfanyl]pyridazin-4-yl]amino}pyridin-2-yl)-3-[(4-cyclopropylpiperazin-1-yl)methyl]bicyclo[1.1.1]pentane-1-carboxamide], the Ki was 0.126 to 0.316 nM. To `CN1CCN([C@H]2C[C@@H](C(=O)Nc3cc(Nc4cc(-c5cc(Cl)ccc5F)nnc4SC(C)(C)CO)ccn3)C2)CC1` [Example 94, Cis N-(4-{[6-(5-chloro-2-fluorophenyl)-3-[(1-hydroxy-2-methylpropan-2-yl)sulfanyl]pyridazin-4-yl]amino}pyridin-2-yl)-3-(4-methylpiperazin-1-yl)cyclobutane-1-carboxamide] belongs ≤ 0.1 nM; to `COC(=O)C1CN(CC(=O)Nc2cc(Nc3cc(-c4cc(Cl)ccc4F)nnc3OCCN(C)C)ccn2)CCN1C` (centres unmarked) [Example 12, methyl 4-{[(4-{[6-(5-chloro-2-fluorophenyl)-3-[2-(dimethylamino)ethoxy]pyridazin-4-yl]amino}pyridin-2-yl)carbamoyl]methyl}-1-methylpiperazine-2-carboxylate], 0.126 to 0.316 nM; to `CN1C[C@@H]2C[C@H]1CN2CC(=O)Nc1cc(Nc2cc(-c3cc(Cl)ccc3F)nnc2OCc2cccc(O)c2)ccn1` [Example 120, N-(4-{[6-(5-chloro-2-fluorophenyl)-3-[(3-hydroxyphenyl)methoxy]pyridazin-4-yl]amino}pyridin-2-yl)-2-[(1S,4S)-5-methyl-2,5-diazabicyclo[2.2.1]heptan-2-yl]acetamide], ≤ 0.1 nM. Turning to `CN(CCC(O)C(F)(F)F)c1nnc(-c2cc(Cl)ccc2F)cc1Nc1ccnc(NC(=O)CN2C[C@@H]3C[C@H]2CN3C)c1` (mixture of isomers) [Example 130, N-(4-{[6-(5-chloro-2-fluorophenyl)-3-[methyl(4,4,4-trifluoro-3-hydroxybutyl)amino]pyridazin-4-yl]amino}pyridin-2-yl)-2-[(1S,4S)-5-methyl-2,5-diazabicyclo[2.2.1]heptan-2-yl]acetamide], the Ki is ≤ 0.1 nM.

Consider `CN1CCCN([C@H]2C[C@@H](C(=O)Nc3cc(Nc4cc(-c5cc(Cl)ccc5F)nnc4SCCO)ccn3)C2)CC1` [Example 155, Cis N-(4-{[6-(5-chloro-2-fluorophenyl)-3-[(2-hydroxyethyl)sulfanyl]pyridazin-4-yl]amino}pyridin-2-yl)-3-(4-methyl-1,4-diazepan-1-yl)cyclobutane-1-carboxamide], for which the Ki was 0.126 to 0.316 nM. Take `O=C(Nc1cc(Nc2cc(-c3cc(Cl)ccc3F)nnc2SCCO)ncn1)[C@H]1C[C@@H](N2CCN(C3CC3)CC2)C1` [Example 181, Cis N-(6-{[6-(5-chloro-2-fluorophenyl)-3-[(2-hydroxyethyl)sulfanyl]pyridazin-4-yl]amino}pyrimidin-4-yl)-3-(4-cyclopropylpiperazin-1-yl)cyclobutane-1-carboxamide]: the Ki was ≤ 0.1 nM. Consider `CN1CCCN(CC(=O)Nc2cc(Nc3cc(-c4cc(Cl)ccc4F)nnc3N(C)CC3(C)CCOC3=O)ncn2)CC1` (single isomer, unassigned) [Example 208, N-(6-{[6-(5-chloro-2-fluorophenyl)-3-{methyl[(3-methyl-2-oxooxolan-3-yl)methyl]amino}pyridazin-4-yl]amino}pyrimidin-4-yl)-2-(4-methyl-1,4-diazepan-1-yl)acetamide], for which the Ki was ≤ 0.1 nM. On to `Nc1cc(Nc2cc(-c3cc(Cl)ccc3F)nnc2OCCO)ccn1` [Example 43, 2-({4-[(2-aminopyridin-4-yl)amino]-6-(5-chloro-2-fluorophenyl)pyridazin-3-yl}oxy)ethan-1-ol], for which the Ki is 0.398 to 3.16 nM. To `CCOC(=O)C(C)(C)CN(C)c1nnc(-c2cc(Cl)ccc2F)cc1Nc1ccnc(NC(=O)CCN2CCN(C)CC2)c1` [Example 145, ethyl 3-{[6-(5-chloro-2-fluorophenyl)-4-({2-[3-(4-methylpiperazin-1-yl)propanamido]pyridin-4-yl}amino)pyridazin-3-yl](methyl)amino}-2,2-dimethylpropanoate] belongs 0.126 to 0.316 nM; to `CN1CCCN(CCC(=O)Nc2cc(Nc3cc(-c4cc(Cl)ccc4F)nnc3SCCO)ccn2)CC1` [Example 84, N-(4-{[6-(5-chloro-2-fluorophenyl)-3-[(2-hydroxyethyl)sulfanyl]pyridazin-4-yl]amino}pyridin-2-yl)-3-(4-methyl-1,4-diazepan-1-yl)propanamide], ≤ 0.1 nM; to `CN1CCN([C@H]2C[C@@H](C(=O)Nc3cc(Nc4cc(-c5cc(Cl)ccc5F)nnc4SCCO)ccn3)C2)CC12CC2` [Example 90, Cis N-(4-{[6-(5-chloro-2-fluorophenyl)-3-[(2-hydroxyethyl)sulfanyl]pyridazin-4-yl]amino}pyridin-2-yl)-3-{4-methyl-4,7-diazaspiro[2.5]octan-7-yl}cyclobutane-1-carboxamide], ≤ 0.1 nM. As for `CN1CCN(CCC(=O)Nc2cc(Nc3cc(-c4cc(Cl)ccc4F)nnc3N(C)C[C@@]3(C)CCOC3=O)ccn2)CC1` (racemic) [Example 127, N-(4-{[6-(5-chloro-2-fluorophenyl)-3-{methyl[(3-methyl-2-oxooxolan-3-yl)methyl]amino}pyridazin-4-yl]amino}pyridin-2-yl)-3-(4-methylpiperazin-1-yl)propanamide], the Ki is ≤ 0.1 nM. Consider `CN1CCN(CCOc2ccc3c(Nc4cc(-c5cc(Cl)ccc5F)nnc4OCC(F)(F)F)ccnc3c2)CC1` [Example 51, N-[6-(5-chloro-2-fluorophenyl)-3-(2,2,2-trifluoroethoxy)pyridazin-4-yl]-7-[2-(4-methylpiperazin-1-yl)ethoxy]quinolin-4-amine], for which the Ki was ≤ 0.1 nM.

For the molecule `CN1CCN(CCC(=O)Nc2cc(Nc3cc(-c4cc(Cl)ccc4F)nnc3SCc3ccc(C(=O)O)cc3)ccn2)CC1` [Example 203, 4-({[6-(5-chloro-2-fluorophenyl)-4-({2-[3-(4-methylpiperazin-1-yl)propanamido]pyridin-4-yl}amino)pyridazin-3-yl]sulfanyl}methyl)benzoic acid], the inhibition constant Ki is ≤ 0.1 nM.
